Measured values reported in patent EP4667464A1 (Cyrus Therapeutics Inc., priority 2023, dated 2024).

How the values were obtained:
[1] = target: T1, KRAS G12C::SOS1 (Homo sapiens, UniProt Q07889); assay: KRAS G12C::SOS1 protein-protein interaction (PPI) inhibition assay (HTRF); format: binding; details: 8 concentrations from 3 µM, three replicates; read-out: KRAS G12C::SOS1 PPI
T1 construct: purchased CISBIO 64KRASG12PEH
T1 sequence (Q07889 1-1333): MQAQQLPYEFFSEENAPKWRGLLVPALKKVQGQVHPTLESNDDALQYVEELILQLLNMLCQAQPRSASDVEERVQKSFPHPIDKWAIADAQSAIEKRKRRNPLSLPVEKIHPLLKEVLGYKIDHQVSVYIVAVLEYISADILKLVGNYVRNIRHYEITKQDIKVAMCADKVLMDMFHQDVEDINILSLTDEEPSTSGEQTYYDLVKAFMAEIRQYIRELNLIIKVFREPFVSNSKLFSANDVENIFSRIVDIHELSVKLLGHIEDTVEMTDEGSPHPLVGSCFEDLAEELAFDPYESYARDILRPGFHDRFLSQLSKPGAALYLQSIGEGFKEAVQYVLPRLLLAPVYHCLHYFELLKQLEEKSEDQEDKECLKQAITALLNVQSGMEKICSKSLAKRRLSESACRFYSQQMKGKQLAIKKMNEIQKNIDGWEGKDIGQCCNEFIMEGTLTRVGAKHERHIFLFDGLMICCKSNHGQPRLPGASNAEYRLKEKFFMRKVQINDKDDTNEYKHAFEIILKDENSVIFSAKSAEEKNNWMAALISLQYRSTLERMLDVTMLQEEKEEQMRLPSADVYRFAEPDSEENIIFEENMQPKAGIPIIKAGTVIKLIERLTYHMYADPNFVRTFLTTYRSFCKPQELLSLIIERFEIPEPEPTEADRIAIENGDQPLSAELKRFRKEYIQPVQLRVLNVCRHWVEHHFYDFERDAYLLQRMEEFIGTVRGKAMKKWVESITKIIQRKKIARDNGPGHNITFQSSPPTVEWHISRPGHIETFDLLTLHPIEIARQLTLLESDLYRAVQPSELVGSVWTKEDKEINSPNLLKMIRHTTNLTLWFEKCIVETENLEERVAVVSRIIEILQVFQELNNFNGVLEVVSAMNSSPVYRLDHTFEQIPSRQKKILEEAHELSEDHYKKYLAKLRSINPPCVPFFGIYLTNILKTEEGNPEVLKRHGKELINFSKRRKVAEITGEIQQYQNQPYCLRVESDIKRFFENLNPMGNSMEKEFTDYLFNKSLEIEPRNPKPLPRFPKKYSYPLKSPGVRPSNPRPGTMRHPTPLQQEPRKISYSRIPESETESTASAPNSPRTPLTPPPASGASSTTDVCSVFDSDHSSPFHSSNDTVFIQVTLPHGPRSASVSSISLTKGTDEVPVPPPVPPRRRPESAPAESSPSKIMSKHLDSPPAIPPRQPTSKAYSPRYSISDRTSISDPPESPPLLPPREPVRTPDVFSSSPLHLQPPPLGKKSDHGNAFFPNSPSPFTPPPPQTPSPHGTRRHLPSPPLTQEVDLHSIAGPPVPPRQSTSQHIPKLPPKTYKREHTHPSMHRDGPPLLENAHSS
In short: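 Compounds, at eight 3-fold dilutions from 3 µM, were mixed with GTP-loaded Tag1-KRAS G12C, Tag2-SOS1 and a terbium-cryptate donor plus XL665 acceptor antibody pair. After 2 h at room temperature, time-resolved FRET reported the KRAS–SOS1 interaction.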

[2] = target: T2, SOS1 (Homo sapiens, UniProt Q07889); assay: SOS-catalyzed nucleotide exchange assay (HTRF, SOS1-mediated GTP loading of KRAS G12D); format: biochemical; details: GST-KRAS G12D, HIS-SOS1cat, compound 128 pM to 10 µM; read-out: SOS-catalyzed nucleotide exchange assay
T2 construct: HIS-SOS1cat (160 nM; Cytoskeleton, US); His (N); purchased Cytoskeleton
T2 sequence (Q07889 564-1049 limits assumed): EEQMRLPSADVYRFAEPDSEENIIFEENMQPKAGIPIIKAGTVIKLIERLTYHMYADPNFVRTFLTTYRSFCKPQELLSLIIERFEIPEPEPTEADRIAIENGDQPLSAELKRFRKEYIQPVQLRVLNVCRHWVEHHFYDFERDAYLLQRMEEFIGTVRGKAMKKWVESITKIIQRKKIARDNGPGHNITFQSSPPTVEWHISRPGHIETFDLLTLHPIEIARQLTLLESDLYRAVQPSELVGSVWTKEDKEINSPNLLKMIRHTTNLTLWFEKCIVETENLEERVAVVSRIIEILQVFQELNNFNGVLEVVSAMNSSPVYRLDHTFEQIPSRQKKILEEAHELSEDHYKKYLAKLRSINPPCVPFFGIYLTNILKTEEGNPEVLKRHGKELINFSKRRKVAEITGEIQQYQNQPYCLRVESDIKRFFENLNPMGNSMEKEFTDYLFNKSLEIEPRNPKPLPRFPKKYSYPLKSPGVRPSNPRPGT

[3] = tested on: lung cancer cell line NCI-H358 having the KRAS G12C variant; assay: Cancer cell growth inhibition, 3D spheroids (CellTiter-Glo 3D); format: cell-based; details: Homo sapiens, NCI-H358, 120 h; 3D spheroids, 0.002-10 µM, 5 days; read-out: H358 cell viability
In short: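 NCI-H358 (KRAS G12C) spheroids lysed with CellTiter-Glo 3D for 30 min with shaking after 10 min at room temperature. Growth in compound-treated wells expressed relative to untreated wells set to 100%.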

[4] = tested on: lung cancer cell line H358 having the KRAS G12S variant; assay: SynergyScreen combination efficacy (ATPlite 1Step cell viability)
Procedure: In order to measure cell viability, each well was treated with 24 µL of ATPlite 1Step™ (PerkinElmer) solution, then mixed for 2 minutes, and reacted by blocking light for 5 minutes, and then the luminescence signal was measured using an Envision multilabel reader (PerkinElmer).

IC50 [1]: 0.05 to 0.15 µM
IC50 [2]: 0.05 to 0.15 µM
IC50 [3]: < 1 µM
SMILES: C[C@@H](NC(=O)c1ccc(=O)n(-c2cncc(-c3cnnn3C)c2)n1)c1cccc(C(F)(F)F)c1F [Example 1-2, N-[(1R)-1-[2-fluoro-3-(trifluoromethyl)phenyl]ethyl]-1-[5-(3-methyltriazol-4-yl)-3-pyridyl]-6-oxo-pyridazine-3-carboxamide]
EFFECT20 (concentration that induces 20% cell death), applied as final treatment concentration ([4]; culture time 72 h): 1854 nM
EFFECT20 (concentration that induces 20% cell death), applied as final treatment concentration ([4]; culture time 120 h): 652 nM
